Data taken from patent US9456995B2, “Methods for inhibition of BNIP3 and prevention and treatment of ischemia reperfusion injury by tetra-O-methyl nordihydroguaiaretic acid” (THE JOHNS HOPKINS UNIVERSITY, priority 2012, dated 2016).

Tests used:
LNCAP cells = experiment: Mitochondrial metabolism and membrane potential in LNCaP cells; assay type: cell-based, human; conditions: data not shown
[1] = test system: mitochondrial permeability transition pore (mPTP); experiment: Mitochondrial permeability transition pore (mPTP) openings by confocal microscopy in HL-1 cells; assay type: cell-based, mouse; conditions: M4N at 5-20 μM, hypoxia 6 hours then normoxia 8 hours, data not shown
Protocol: Measurement of mitochondrial permeability transition pore (mPTP) openings. The mPTP was measured by Image-iT LIVE Mitochondria Transition Pore Assay Kit (Molecular Probes, Eugene Oreg.). The cells were first washed with Hank's Balanced Salt Solution (HBSS) with sodium bicarbonate, calcium, and magnesium that also included HEPES (10 mM), L-glutamine (2 mM) and succinate (100 μM) to support healthy mitochondrial function (modified HBSS). The cells were then labeled with calcein-AM (1.0 μM) and MitoTracker Red CMSRos dye ([…]) in modified HBSS with […] CoCl2 for 15 minutes. After the medium was changed to the normal HL-1 culture medium, the cells were treated with M4N at various concentrations (0, 5, 10, 20, 40, and 80 μM). The cells were incubated under hypoxia for 6 hours, followed with under normoxia for 8 hours. After the cells were washed with modified HBSS, they were examined by B29/Zeiss LSM 510 META laser confocal microscope (Carl Zeiss, Jena, Germany) for calcein at FITC settings and for MitoTracker at rhodamine settings.

BNIP3 [2] = experiment: BNIP3 expression by western blotting in HL-1 cells under hypoxia; assay type: cell-based, mouse; conditions: M4N at 10-40 μM; hypoxia for 6 hours then normoxia for 18 hours; FIG. 3
Protocol: Cell Culture. HL-1 mouse heart cell line was a kind gift from Dr. Claycomb (LSU Health Science Centers, New Orleans La.) (Proc. Natl. Acad. Sci. U.S.A., 95: 2979-84 (1998)). HL-1 cells were cultured in Claycomb medium (Sigma, Saint Louis, Mo.) supplemented with FBS (10%), Norepinephrine (0.1 mM), L-Glutamine (2 mM), penicillin (100 units/ml) and streptomycin (100 μg/ml). Drugs were dissolved in dimethyl sulfoxide at the final concentrations in the medium less than 0.1%. When the cells were indicated to be cultured under hypoxic conditions, the cells were incubated at the oxygen concentration of 0.5% in the hypoxic chamber (BioSpherix Ltd, Lacona, N.Y.). Western blotting. After cells had been grown in […] flasks and treated with reagents, the cells were washed with PBS (−) three times and suspended in RIPA buffer (150 mM NaCl, 50 mM Tris-HCl (pH 8.0), 0.1% SDS, 1% NP40, and 0.5% deoxycholate) supplemented with protease inhibitor cocktail (Calbiochem, San Diego, Calif.). The sample volumes were adjusted by the total protein amount. Protein assay was performed by Bio-Rad Protein Assay (Bio-Rad Laboratories, Inc. Hercules, Calif.). […] The signals were detected by western blot chemiluminescence reagent plus (New England Nuclear Life Science Products, Boston, Mass.). […]

[3] = numerous clinical trials as an anticancer drug; cited from earlier work
HL-1 mouse heart cells [4] = experiment: TUNEL assay of cell death induced by hypoxia in HL-1 cells; assay type: cell-based; conditions: M4N at 5-20 μM; 6 hour hypoxia (0.5% oxygen) followed with 18 hour normoxia; FIG. 1
Protocol: Cell Culture. HL-1 mouse heart cell line was a kind gift from Dr. Claycomb (LSU Health Science Centers, New Orleans La.) (Proc. Natl. Acad. Sci. U.S.A., 95: 2979-84 (1998)). HL-1 cells were cultured in Claycomb medium (Sigma, Saint Louis, Mo.) supplemented with FBS (10%), Norepinephrine (0.1 mM), L-Glutamine (2 mM), penicillin (100 units/ml) and streptomycin (100 μg/ml). Drugs were dissolved in dimethyl sulfoxide at the final concentrations in the medium less than 0.1%. When the cells were indicated to be cultured under hypoxic conditions, the cells were incubated at the oxygen concentration of 0.5% in the hypoxic chamber (BioSpherix Ltd, Lacona, N.Y.). Cell death assay. Terminal deoxynucleotidyl transferase dUTP nick end labeling (TUNEL) assay was conducted by using TUNEL apoptosis detection kits (Upstate, Temecula, Calif.), with some modifications. The cells were cultured in 12-well microwell culture dishes (Corning Inc., Corning, N.Y.). After the treatment, both the cells floating in the tissue culture medium and those attached to the bottoms of wells were collected together into plastic tubes. […] For the hypoxia treatment the cells were cultured under 0.5% oxygen concentration in a hypoxic chamber for 6 hours and returned the cells back to normoxic condition in a normal culture chamber, and then cell death was measured 18 hours later. […]

HL-1 mouse heart cells [5] = experiment: Trypan blue exclusion assay of cell death under hypoxia or normoxia in HL-1 cells; assay type: cell-based; conditions: M4N at 20 μM, FIG. 2
Protocol: Cell Culture. HL-1 mouse heart cell line was a kind gift from Dr. Claycomb (LSU Health Science Centers, New Orleans La.) (Proc. Natl. Acad. Sci. U.S.A., 95: 2979-84 (1998)). HL-1 cells were cultured in Claycomb medium (Sigma, Saint Louis, Mo.) supplemented with FBS (10%), Norepinephrine (0.1 mM), L-Glutamine (2 mM), penicillin (100 units/ml) and streptomycin (100 μg/ml). Drugs were dissolved in dimethyl sulfoxide at the final concentrations in the medium less than 0.1%. When the cells were indicated to be cultured under hypoxic conditions, the cells were incubated at the oxygen concentration of 0.5% in the hypoxic chamber (BioSpherix Ltd, Lacona, N.Y.). For the Trypan blue exclusion assay, the cells were washed with PBS (−) once and resuspended in PBS (−) again. […] In about 5 to 15 minutes the numbers of both the cells without staining and the cells with staining were counted. The percentages of the number of the cells with staining to the total cell number (which equals to the number of the cells with staining and that of the cells without staining) were calculated. […] For the hypoxia treatment the cells were cultured under 0.5% oxygen concentration in a hypoxic chamber for 6 hours and returned the cells back to normoxic condition in a normal culture chamber, and then cell death was measured 18 hours later. […]

BNIP3 [6] = experiment: BNIP3 expression in human cancer cells (LNCaP, PC3, MCF-7, HepG2); assay type: cell-based
HL-1 mouse heart cells [7] = experiment: UCN-01-induced cell death in HL-1 cells, Trypan blue exclusion assay; assay type: cell-based; conditions: M4N around 20 μM; UCN-01 (0.2 μM) for 24 hours; FIG. 4
Protocol: FIG. 4 depicts the effect of M4N on cell death induced by UCN-01 treatment in HL-1 mouse heart cells. The cells were treated with M4N followed with UCN-01 (0.2 μM) treatment for 24 hours. The cell death was measured with Trypan Blue exclusion assay. The asterisk indicates a statistically significant difference by t-test at the error rate of less than 2%. For the Trypan blue exclusion assay, the cells were washed with PBS (−) once and resuspended in PBS (−) again. One part of the resuspended cell solution was mixed with one part of 0.4% Trypan blue solution (Sigma). In about 5 to 15 minutes the numbers of both the cells without staining and the cells with staining were counted. The percentages of the number of the cells with staining to the total cell number (which equals to the number of the cells with staining and that of the cells without staining) were calculated. Effect of M4N on UCN-01-inducing cell death. Next, the effect of M4N on the cell death induced by UCN-01, an anticancer drug, in HL-1 cells (FIG. 4) was examined.

## COc1ccc(C[C@@H](C)[C@@H](C)Cc2ccc(OC)c(OC)c2)cc1OC [M4N, tetra-o-methyl nordihydroguaiaretic acid]
LNCAP cells
  mitochondrial membrane potential (ΔΨm): induce hyperpolarization of ΔΨm
  mitochondrial metabolism: suppress mitochondrial metabolism
[1]
  mPTP openings induced by hypoxia: suppressed mPTP openings induced by hypoxia
BNIP3 [2]
  BNIP3 expression (western blotting): suppressed
[3]
  toxicity and safety in clinical trials: very nontoxic and safe drug
HL-1 mouse heart cells [4]
  TUNEL-positive cell death induced by hypoxia: reduced the cell death induced by hypoxia
HL-1 mouse heart cells [5]; either 6 hour hypoxia with additional 18 hour normoxia or 24 hour hypoxia
  cell death induced by hypoxia, Trypan blue exclusion assay: reduced the cell death induced by hypoxia
HL-1 mouse heart cells [5]; normoxic condition, compared with the control
  cell death under normoxic condition, Trypan blue exclusion assay: reduced cell death compared with the control
BNIP3 [6]; LNCaP human prostate cancer cells, internal data not shown
  BNIP3 expression at the transcription level: blocks BNIP3 expression
BNIP3 [6]; LNCaP, PC3, MCF-7, HepG2 cells, previously found
  expression of BNIP3 in various cancer cells: reduced the expression of BNIP3
HL-1 mouse heart cells [7]
  UCN-01-mediated cell death, Trypan blue exclusion assay: reduced UCN-01-mediated cell death
